SMILES	melting point
CC(C)(F)c1cnn2c(-c3ccc(F)c(-c4ccc(F)cc4C#N)c3)cnc2n1	156 to 159 °C
CC(C)(O)c1cnn2c(-c3cccc(-c4ccc(F)cc4C#N)c3)cnc2n1	175 °C
CC(C)(O)c1cnn2c(-c3ccc(F)c(-c4ccc(F)cc4C#N)c3)cnc2n1	215 °C
N#Cc1ccc(F)cc1-c1cc(-c2cnc3nc(C(F)(F)F)cnn23)ccc1F	200 to 201 °C

Reference: patent publication US6617326B2 (dated 2003)
